Assay results taken from PubChem BioAssay (NCI).
“And” between values parts separate entries of the source, which are not always exact repeats. Equal values may be shown once.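 Where inhibition never reached the appropriate level, the endpoint shown equals the highest concentration tested. Otherwise, values were interpolated linearly from a five-concentration, 48-hour dose response in 96-well plates. The concentration for 50% growth inhibition is given as GI50. TGI marks complete inhibition of growth.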

What was measured:
Assay in all cases: NCI-60 cell line screen, 48 h
UACC-62 melanoma = tested on: UACC-62 melanoma
BT-549 breast = tested on: BT-549 breast
RPMI-8226 leukemia = tested on: RPMI-8226 leukemia
SW-620 colon = tested on: SW-620 colon
SK-OV-3 ovarian = tested on: SK-OV-3 ovarian
HT29 colon = tested on: HT29 colon
HL-60(TB) leukemia = tested on: HL-60(TB) leukemia
A549 NSCLC = tested on: A549 NSCLC
CAKI-1 renal = tested on: CAKI-1 renal
PC-3 prostate = tested on: PC-3 prostate

SMILES	GI50 (UACC-62 melanoma)	TGI (UACC-62 melanoma)	GI50 (BT-549 breast)	TGI (BT-549 breast)	GI50 (RPMI-8226 leukemia)	TGI (RPMI-8226 leukemia)	GI50 (SW-620 colon)	TGI (SW-620 colon)	GI50 (SK-OV-3 ovarian)	TGI (SK-OV-3 ovarian)	GI50 (HT29 colon)	TGI (HT29 colon)	GI50 (HL-60(TB) leukemia)	TGI (HL-60(TB) leukemia)	GI50 (A549 NSCLC)	TGI (A549 NSCLC)	GI50 (CAKI-1 renal)	TGI (CAKI-1 renal)	GI50 (PC-3 prostate)	TGI (PC-3 prostate)
CCCCCCCCCCCCCCCCCCn1cc[n+](C)c1	1.04 µM	2.3 µM	1.17 µM	2.71 µM	0.0268 µM	0.233 µM	0.624 µM	1.96 µM	1.23 µM and 1.1 µM	4.14 µM and 2.62 µM	0.403 µM and 0.358 µM	1.64 µM and 1.45 µM	0.143 µM and 0.293 µM	0.336 µM and 1.67 µM	–	–	–	–	–	–
O=C(Nc1ccccc1)Nc1ccc2cc3ccc(NC(=O)Nc4ccccc4)cc3nc2c1	1.75 µM	3.21 µM	1.88 µM	3.69 µM	5.42 µM	> 100 µM	0.331 µM	1.19 µM	2.13 µM	4.5 µM	1.89 µM	3.73 µM	–	–	11.2 µM	> 100 µM	2.95 µM	12.3 µM	–	–
CCc1cccc(C)c1NC(=O)C(=O)CC(=O)c1ccc(Cl)s1	–	> 100 µM	–	–	–	–	–	> 100 µM	–	> 100 µM	–	> 100 µM	–	> 100 µM	–	> 100 µM	–	> 100 µM	–	–
Cc1csc2[n+]1-c1ccccc1N(C(=O)Nc1ccccc1)C(C)C2 (centres undefined)	60.4 µM	> 100 µM	> 100 µM	> 100 µM	67.5 µM	> 100 µM	41 µM	> 100 µM	–	–	36.6 µM	> 100 µM	–	–	36.6 µM	> 100 µM	84.9 µM	> 100 µM	59.1 µM	> 100 µM
O=[N+]([O-])C=C(c1ccc(Cl)cc1)c1ccc(Cl)cc1	–	–	–	–	–	34 µM	–	31 µM	–	–	–	35.5 µM	–	44 µM	–	46.7 µM	–	37.7 µM	–	–
CN(C)C(=N/O)/C(=N\O)N(C)C	–	> 100 µM	–	–	–	> 100 µM	–	> 100 µM	–	> 100 µM	–	> 100 µM	–	> 100 µM	–	> 100 µM	–	> 100 µM	–	–
CCOP(=O)(OCC)C1CCCOC1=O (centres undefined)	–	> 100 µM	–	–	–	> 100 µM	–	> 100 µM	–	> 100 µM	–	> 100 µM	–	> 100 µM	–	> 100 µM	–	> 100 µM	–	–
COC(=O)C1=C(O)[C@H](C(=O)OC)C2(O)C(C(=O)OC)[C@H](c3ccc(OC(=O)C(C)c4ccc(CC(C)C)cc4)cc3)C[C@@H]1[C@@H]2C(=O)OC (some centres undefined)	9.41 µM	22.4 µM	1.03 µM	3.68 µM	4.62 µM	> 50 µM	18.1 µM	> 50 µM	38.5 µM	> 50 µM	–	–	–	–	26.8 µM	> 50 µM	> 50 µM	> 50 µM	35 µM	> 50 µM
CCOC(=O)c1cc2c(cc1Cl)SC(=Nc1ccccc1)N(S(=O)(=O)c1ccc(Cl)cc1)S2(=O)=O	10.2 µM	23.7 µM	14.5 µM	30.4 µM	4.26 µM	19.4 µM	14.6 µM	32.6 µM	17.4 µM	35.2 µM	19.4 µM	> 100 µM	–	–	26.1 µM	68 µM	15.7 µM	33.7 µM	12.2 µM	28.6 µM
